Tested on: AMPK
Test: AMPK enzyme activity assay (Delfia technology, AMARA peptide substrate)
Assay type: biochemical
Details: compound at 30 μM vs AMP at 200 μM
How it was run: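 Value is the ratio of compound (30 μM) to AMP (200 μM) response, each as % of basal control. Phosphorylation of the AMARA peptide after AMPK addition was read by Delfia with an anti-phosphoserine antibody.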

| Structure (SMILES) | Activity: Ratio between the % of control (basal activity) of compound of formula (1) at 30 μM and the % of control (basal activity) of AMP (natural substrate) at 200 μM | Activity: Ratio between the % of control (basal activity) of compound of formula (1) at 30 μM and the % of control (basal activity) of AMP (natural substrate) at 200 μM (listed as 4) | Activity: Ratio between the % of control (basal activity) of compound of formula (1) at 30 μM and the % of control (basal activity) of AMP (natural substrate) at 200 μM (listed as 5) |
| --- | --- | --- | --- |
| COc1ccc(-c2c(Cl)sc3c2C(=O)C(C)(c2ccc(OC)cc2)C(=O)N3)cc1 (centres unmarked) [No 86, 2-chloro-3,5-bis(4-methoxyphenyl)-5-methyl-7H-thieno[2,3-b]pyridine-4,6-dione] | A (0%<A<50%) |  |  |
| COc1ccc(-c2c(Cl)sc3c2C(=O)C(C)(c2cccc(C)c2)C(=O)N3)cc1 (centres unmarked) [No 87, 2-chloro-3-(4-methoxyphenyl)-5-methyl-5-(m-tolyl)-7H-thieno[2,3-b]pyridine-4,6-dione] | A (0%<A<50%) |  |  |
| COc1ccc(-c2c(Cl)sc3c2C(=O)C(C)(c2cccc(OC)c2)C(=O)N3)cc1 (centres unmarked) [No 88, 2-chloro-5-(3-methoxyphenyl)-3-(4-methoxyphenyl)-5-methyl-7H-thieno[2,3-b]pyridine-4,6-dione] | A (0%<A<50%) |  |  |
| CC1(c2ccccc2F)C(=O)Nc2sc(Cl)c(-c3ccccc3F)c2C1=O (centres unmarked) [No 89, 2-chloro-3,5-bis(2-fluorophenyl)-5-methyl-7H-thieno[2,3-b]pyridine-4,6-dione] | A (0%<A<50%) |  |  |
| CC1(c2cccc(F)c2)C(=O)Nc2sc(Cl)c(-c3ccccc3F)c2C1=O (centres unmarked) [No 90, 2-chloro-3-(2-fluorophenyl)-5-(3-fluorophenyl)-5-methyl-7H-thieno[2,3-b]pyridine-4,6-dione] | A (0%<A<50%) |  |  |
| CC1(c2ccc(F)cc2)C(=O)Nc2sc(Cl)c(-c3ccccc3F)c2C1=O (centres unmarked) [No 91, 2-chloro-3-(2-fluorophenyl)-5-(4-fluorophenyl)-5-methyl-7H-thieno[2,3-b]pyridine-4,6-dione] | A (0%<A<50%) |  |  |
| Cc1cccc(C2(C)C(=O)Nc3sc(Cl)c(-c4ccccc4F)c3C2=O)c1 (centres unmarked) [No 92, 2-chloro-3-(2-fluorophenyl)-5-methyl-5-(m-tolyl)-7H-thieno[2,3-b]pyridine-4,6-dione] | A (0%<A<50%) |  |  |
| O=C1Nc2sc(Cl)c(-c3ccncc3)c2C(=O)C1(F)c1ccccc1 (centres unmarked) [No 93, 2-chloro-5-fluoro-5-phenyl-3-(4-pyridyl)-7H-thieno[2,3-b]pyridine-4,6-dione] | A (0%<A<50%) |  |  |
| COc1cccc(-c2c(Cl)sc3c2C(=O)C(F)(c2ccccc2)C(=O)N3)c1 (centres unmarked) [No 94, 2-chloro-5-fluoro-3-(3-methoxyphenyl)-5-phenyl-7H-thieno[2,3-b]pyridine-4,6-dione] | C (C≧75%) |  |  |
| O=C1Nc2sc(Cl)c(-c3ccccc3)c2C(=O)C1(F)c1cccc(C(F)(F)F)c1 (centres unmarked) [No 95, 2-chloro-5-fluoro-3-phenyl-5-[3-(trifluoro-methyl)phenyl]-7H-thieno[2,3-b]pyridine-4,6-dione] | B (50%≦B<75%) |  |  |
| COc1ccc(-c2c(Cl)sc3c2C(=O)C(C)(c2ccc(C)cc2)C(=O)N3)cc1 (centres unmarked) [No 96, 2-chloro-3-(4-methoxyphenyl)-5-methyl-5-(p-tolyl)-7H-thieno[2,3-b]pyridine-4,6-dione] | A (0%<A<50%) |  |  |
| CS(=O)(=O)c1ccc(C2(F)C(=O)Nc3sc(Cl)c(-c4ccccc4)c3C2=O)cc1 (centres unmarked) [No 97, 2-chloro-5-fluoro-5-(4-methylsulfonylphenyl)-3-phenyl-7H-thieno[2,3-b]pyridine-4,6-dione] | C (C≧75%) |  |  |
| COc1ccccc1-c1c(Cl)sc2c1C(=O)C(F)(c1ccccc1)C(=O)N2 (centres unmarked) [No 98, 2-chloro-5-fluoro-3-(2-methoxyphenyl)-5-phenyl-7H-thieno[2,3-b]pyridine-4,6-dione] | A (0%<A<50%) |  |  |
| COc1ccccc1C1(F)C(=O)Nc2sc(Cl)c(-c3ccc(F)cc3O)c2C1=O (centres unmarked) [No 99, 2-chloro-5-fluoro-3-(4-fluoro-2-hydroxy-phenyl)-5-(2-methoxyphenyl)-7H-thieno[2,3-b]pyridine-4,6-dione] | C (C≧75%) |  |  |
| O=C1Nc2scc(-c3ccccc3)c2C(=O)C1(F)c1ccccc1 (centres unmarked) [No 100, 5-fluoro-3,5-diphenyl-7H-thieno[2,3-b]pyridine-4,6-dione] | B (50%≦B<75%) |  |  |
| O=C1Nc2sc(Cl)c(-c3ccccc3Cl)c2C(=O)C1(F)c1ccccc1 (centres unmarked) [No 101, 2-chloro-3-(2-chlorophenyl)-5-fluoro-5-phenyl-7H-thieno[2,3-b]pyridine-4,6-dione] | B (50%≦B<75%) |  |  |
| Cc1c(F)ccc(-c2csc3c2C(=O)C(F)(c2ccccc2)C(=O)N3)c1O (centres unmarked) [No 102, 5-fluoro-3-(4-fluoro-2-hydroxy-3-methyl-phenyl)-5-phenyl-7H-thieno[2,3-b]pyridine-4,6-dione] | C (C≧75%) |  |  |
| CC1(c2cccc(F)c2)C(=O)Nc2sc(Cl)c(-c3cccc(F)c3)c2C1=O (centres unmarked) [No 103, 2-chloro-3,5-bis(3-fluorophenyl)-5-methyl-7H-thieno[2,3-b]pyridine-4,6-dione] | A (0%<A<50%) |  |  |
| CC1(c2ccccc2F)C(=O)Nc2sc(Cl)c(-c3cccc(F)c3)c2C1=O (centres unmarked) [No 104, 2-chloro-5-(2-fluorophenyl)-3-(3-fluorophenyl)-5-methyl-7H-thieno[2,3-b]pyridine-4,6-dione] | B (50%≦B<75%) |  |  |
| COc1cccc(C2(C)C(=O)Nc3sc(Cl)c(-c4cccc(F)c4)c3C2=O)c1 (centres unmarked) [No 105, 2-chloro-3-(3-fluorophenyl)-5-(3-methoxyphenyl)-5-methyl-7H-thieno[2,3-b]pyridine-4,6-dione] | A (0%<A<50%) |  |  |
| Cc1cccc(C2(C)C(=O)Nc3sc(Cl)c(-c4cccc(F)c4)c3C2=O)c1 (centres unmarked) [No 106, 2-chloro-3-(3-fluorophenyl)-5-methyl-5-(m-tolyl)-7H-thieno[2,3-b]pyridine-4,6-dione] | A (0%<A<50%) |  |  |
| COc1ccccc1-c1c(Cl)sc2c1C(=O)C(C)(c1ccccc1)C(=O)N2 (centres unmarked) [No 107, 2-chloro-3-(2-methoxyphenyl)-5-methyl-5-phenyl-7H-thieno[2,3-b]pyridine-4,6-dione] | A (0%<A<50%) |  |  |
| Cc1c(F)ccc(-c2csc3c2C(=O)C(F)(c2ccc(F)cc2)C(=O)N3)c1O (centres unmarked) [No 108, 5-fluoro-3-(4-fluoro-2-hydroxy-3-methyl-phenyl)-5-(4-fluorophenyl)-7H-thieno[2,3-b]pyridine-4,6-dione] | C (C≧75%) |  |  |
| Cc1ccc(C2(F)C(=O)Nc3scc(-c4ccc(F)cc4O)c3C2=O)cc1 (centres unmarked) [No 109, 5-fluoro-3-(4-fluoro-2-hydroxy-phenyl)-5-(p-tolyl)-7H-thieno[2,3-b]pyridine-4,6-dione] | C (C≧75%) |  |  |
| COc1cc(C)ccc1-c1csc2c1C(=O)C(F)(c1cccc(C#N)c1)C(=O)N2 (centres unmarked) [No 110, 3-[5-fluoro-3-(2-methoxy-4-methyl-phenyl)-4,6-dioxo-7H-thieno[2,3-b]pyridin-5-yl]benzonitrile] | C (C≧75%) | A (0%<A<50%) |  |
| COc1cc(C)ccc1-c1c(F)sc2c1C(=O)C(F)(c1cccc(C#N)c1)C(=O)N2 (centres unmarked) [No 111, 3-[2,5-difluoro-3-(2-methoxy-4-methyl-phenyl)-4,6-dioxo-7H-thieno[2,3-b]pyridin-5-yl]benzonitrile] | C (C≧75%) |  | A (0%<A<50%) |
| COc1cccc(O)c1-c1csc2c1C(=O)C(F)(c1ccccc1)C(=O)N2 (centres unmarked) [No 112, 5-fluoro-3-(2-hydroxy-6-methoxy-phenyl)-5-phenyl-7H-thieno[2,3-b]pyridine-4,6-dione] | A (0%<A<50%) |  |  |
| COc1cc(-c2csc3c2C(=O)C(F)(c2ccccc2)C(=O)N3)ccc1C (centres unmarked) [No 113, 5-fluoro-3-(3-methoxy-4-methyl-phenyl)-5-phenyl-7H-thieno[2,3-b]pyridine-4,6-dione] | B (50%≦B<75%) |  |  |
| COc1cc(-c2c(F)sc3c2C(=O)C(F)(c2ccccc2)C(=O)N3)ccc1C (centres unmarked) [No 114, 2,5-difluoro-3-(3-methoxy-4-methyl-phenyl)-5-phenyl-7H-thieno[2,3-b]pyridine-4,6-dione] | B (50%≦B<75%) |  |  |
| Cc1ccc(-c2csc3c2C(=O)C(F)(c2ccccc2)C(=O)N3)cc1O (centres unmarked) [No 115, 5-fluoro-3-(3-hydroxy-4-methyl-phenyl)-5-phenyl-7H-thieno[2,3-b]pyridine-4,6-dione] | C (C≧75%) |  |  |

Reference: patent US9365584B2, “Thieno [2,3-B] pyridinedione activators of AMPK and therapeutic uses thereof” (Poxel, priority 2009, dated 2016)
